Consider ten compounds from ChEMBL document CHEMBL1144681, “Fluorination of triptolide and its analogues and their cytotoxicity” (Bioorg Med Chem Lett, 2008).

The subject of one experiment is A549. Nature of the experiment: Cytotoxicity against human A549 cells. Type of experiment: functional, cell-based.
For the next experiment, the system named is HT-29. Nature of the experiment: Cytotoxicity against human HT29 cells. Type of experiment: functional, cell-based.

In brackets after ≈: the same amount, converted by molar mass. Where only a bound is given, the exact number is not on record here.

For the compound `CC(C)[C@]1(F)O[C@H]2[C@@H]3O[C@]34[C@]3(O[C@H]3C[C@H]3C5=C(CC[C@@]34C)C(=O)OC5)[C@H]21`, the IC50 turned out to be 997 ng/mL (≈ 2.75 µM) with A549 and 72 ng/mL (≈ 0.199 µM) in the experiment on HT-29.
On to `CC(C)[C@]12O[C@@H]1[C@@H]1O[C@]13[C@]1(O[C@H]1C[C@H]1C4=C(CC[C@@]13C)C(=O)OC4)[C@@H]2F`, for which the IC50 with A549 is 0.42 ng/mL (≈ 0.00116 µM); in the experiment on HT-29, 0.06 ng/mL (≈ 0.000166 µM).
The like results for `CC(C)C1=C[C@]23O[C@H]2C[C@H]2C4=C(CC[C@]2(C)[C@@]32O[C@H]2[C@@H]1O)C(=O)OC4` were, in that order, 81 ng/mL (≈ 0.235 µM) and 17 ng/mL (≈ 0.0494 µM).
In the same order, the values of `CC(C)C1=C[C@]23O[C@H]2C[C@H]2C4=C(CC[C@]2(C)[C@@]32O[C@H]2[C@H]1F)C(=O)OC4` are 2200 ng/mL (≈ 6.35 µM) and 210 ng/mL (≈ 0.606 µM).
On to `CC(C)[C@]12O[C@H]1[C@@H]1O[C@]13[C@]1(O[C@H]1C[C@H]1C4=C(CC[C@@]13C)C(=O)OC4)[C@H]2O` [EPITRIPTOIIDE], for which the IC50 is 59 ng/mL (≈ 0.164 µM) in the experiment with A549 and 9.1 ng/mL (≈ 0.0252 µM) in the experiment with HT-29.
The like results for `CC(C)[C@]12O[C@H]1[C@@H]1O[C@@]13[C@@]1(C)CCC4=C(COC4=O)[C@@H]1C[C@@H]1O[C@@]13C2=O` [TRIPTONIDE] were, in that order, 3.5 ng/mL (≈ 0.00977 µM) and < 0.46 ng/mL.
`CC(C)[C@]12O[C@@H]1[C@@H]1O[C@]13[C@]1(O[C@H]1C[C@H]1C4=C(CC[C@@]13C)C(=O)OC4)[C@H]2F`: the IC50 in the experiment with A549 was 3 ng/mL (≈ 0.00828 µM); in the experiment on HT-29, 0.24 ng/mL (≈ 0.000662 µM).
The like results for `CC(C)[C@]12O[C@H]1[C@@H]1O[C@]13[C@]1(O[C@H]1C[C@H]1C4=C(CC[C@@]13C)C(=O)OC4)[C@@H]2O` [TRIPTOLIDE] were, in that order, 1.3 ng/mL (≈ 0.00361 µM) and 0.1 ng/mL (≈ 0.000277 µM).
In the same order, the values of `CC(C)C(=O)[C@H]1[C@@H](O)[C@@H]2O[C@]23[C@]12O[C@H]2C[C@H]1C2=C(CC[C@@]13C)C(=O)OC2` are > 1 ng/mL and 86 ng/mL (≈ 0.239 µM).
The like results for `CC(C)C1=C[C@]23O[C@H]2C[C@H]2C4=C(CC[C@]2(C)[C@@]32O[C@H]2[C@@H]1F)C(=O)OC4` were, in that order, 1500 ng/mL (≈ 4.33 µM) and 150 ng/mL (≈ 0.433 µM).

One may read the IC50 as the concentration at which inhibition is half-maximal.
